Assay results reported in US20220347323A1, “Positron Emission Tomography Guided Delivery of Mitochondral Complex I Inhibitors” (priority 2019, published 2022).
Entries after “also recorded” stand apart in the source; their conditions may differ.

Assays:
Kras/Lkb1 lung tumors [1] = test: Ki67 staining of TTF1+ and CK5+ Kras/Lkb1 tumors after treatment; format: in vivo, mouse; conditions: 15 mg/kg/day, 12 days
A549 and RH2 cells = test: Cell viability of human ADC (A549) and SCC (RH2) cell lines; format: cell-based; conditions: A549 vs RH2, 48 hr, low doses
From the text: (§1) Experiments were repeated twice.

Kras/Lkb1 lung tumors [2] = test: Treatment of Kras/Lkb1 mice, tumor burden; format: in vivo, mouse
[3] = Phenformin quantification in lung tumors by LC/MS; format: in vivo, mouse; conditions: 100-200 mg/kg oral gavage, 5 days, vs vehicle
Experimental: Tumors were homogenized with a Tissue Master (Omni international) in 1 ml chilled 80% Methanol. Tumor suspensions were spun down at 4° C. for 5 min at 17,000g, and the top layer taken as extracted metabolites. The volume equivalent of 1 mg of tumor was transferred into glass vials and the samples were dried with a EZ2-Elite lyophilizer (Genevac). Dried metabolites were re-suspended in 100 μl of 50%:50% acetonitrile (ACN):dH20 solution; 10 μl of these suspensions were injected per analysis. Samples were run on a Vanquish (Thermo Scientific) UHPLC system with mobile phase A (5 mM NH4AcO, pH 9.9) and mobile phase B (ACN). […] The UHPLC was coupled to a Q-Exactive (Thermo Scientific) mass analyzer running in positive mode at 3.5 kV with an MS1 resolution of 70,000. Metabolites were identified using exact mass (MS1), retention time, and fragmentation patterns (MS2) at normalized collision energy (NCE) 35. Quantification was performed via area under the curve (AUC) integration of MS1 ion chromatograms with the MZmine 2 software package. For the quantification of absolute moles of phenformin, one tumor from the vehicle group was selected to provide a representative tumor small molecular matrix. […]

A549 cells [4] = test: Respirometry (Seahorse OCR), A549; format: cell-based, human; conditions: A549, 1 mM, 45 min
Experimental: Experiments were conducted on a Seahorse XF96 Extracellular Flux Analyzer (Agilent Technologies) in order to measure oxygen consumption rate (OCR) and extracellular acidification rate (ECAR). […] On the day of the experiment, assay medium (Seahorse XF Base Medium supplemented with 2 mM L-glutamine, 1mM Pyruvate and 10 mM glucose) was freshly prepared. The cells were washed twice with assay medium and brought to a final volume of 175 μL per well. The XF96 plate was placed in a 37° C. incubator without CO2 for 30 minutes prior to loading the plate into the instrument. Injection of compounds during the assay included: the mitochondrial ATP Synthase inhibitor oligomycin (final concentration of 2 μM); the chemical uncoupler, FCCP (final concentration of 1 μM); and the Complex I inhibitors rotenone (final concentrations 2 μM) and phenformin (final concentration 1 mM) and Complex III inhibitor antimycin A (final concentrations of 2 μM). […] Activity of complex I was measured in permeabilized cells using XF PMP assay where complex I dependent OCR was measured by determining OCR in the presence of pyruvate and malate (as substrates for complex I) before and after addition of rotenone (complex I inhibitor).

A549 cells [5] = test: In vitro 18FBnTP uptake assay, A549; format: cell-based, human; conditions: A549, 1 mM, 3 hr
Kras/Lkb1 lung tumors [6] = test: Cleaved caspase 3 and Ki67 staining of Kras/Lkb1 tumors; format: in vivo, mouse; conditions: short-term 5 day treatment
Experimental: After the fixation step in 10% neutral buffered formalin overnight, lungs were transferred to 70% ethanol and further processing and embedding was done by the TPCL at UCLA. The following antibodies were used: anti-CK5 (EP1601Y) (abcam, ab52635 1:100), anti-TTF1 (8G7G3/1) (Dako, 1:1000), anti-Ki67 (SP6) (Thermo-Scientific, RM-9106-SO 1:200), anti-Glut1 (alpha-diagnostic, GT11-A, 1:400). Slides were scanned onto a ScanScope AT (Aperio Technologies Inc.). Digital slides were analyzed with Definiens and QuPath software.

Kras/Lkb1 lung tumors [7] = test: 18FBnTP PET of lung tumors in Kras/Lkb1 GEMMS before and after treatment; format: in vivo, mouse; conditions: 5 days, vs vehicle
From the text: We performed studies with the genetically engineered mouse model of lung cancer using Kras-Lox-Stop-Lox-G12D; Lkb1 Lox/Lox; Rosa26-Lox-Stop-Lox-Luc mice (KL) as described previously [Ref. 33]. Briefly, lung tumors were induced by intranasal administration of 5×10^5 transduction units of Lenti-PGK-Cre (Cat. #FCT071, Kerafast,) as previously described [Ref. 9, 33]. Lentiviral delivery of Cre recombinase to KL mice leads to near 100% development of lung adenocarcinomas [Ref. 36]. KL mice that were inhaled with LentiCre were used in studies with Phenformin treatment. For studies where mice were imaged with both ^18FBnTP and ^18F-FDG probes, KL mice were inhaled with Adenoviral Cre, which leads to development of both ADC and SCC tumors. For all treatments, KL mice were imaged with ^18FBnTP and sorted into two groups based on tumor maximum percent injected dose per gram (%ID/g) values, so that two groups would have similar maximum %ID/g values. Treatment was initiated on the same day or on the following day after ^18FBnTP imaging. Mice were treated with 125 mg/kg/day phenformin for 5 days or 15 mg/kg/day IACS-010759 for 12 days. The drugs were delivered by oral gavage. All experimental procedures that were performed on mice were approved by the UCLA Animal Research Committee (ARC). Both male and female mice were used in all experiments and no preference in mouse gender was given for any of the studies.
In order to reduce variability between mice imaged with ^18FBnTP, maximum percent injected dose per gram (%ID/g) for each tumor was normalized to maximum %ID/g of heart as indicated in the figures. For waterfall plots in FIG. 2m and FIGS. 8e-8f, we calculated % change in the uptake of the ^18FBnTP probe post-treatment relative to pre-treatment using maximum %ID/g of the tumor that was normalized to maximum %ID/g of the heart for each mouse.

Kras/Lkb1 tumors = conditions: cited from earlier work
[8] = system: mouse adenocarcinoma and squamous cell carcinoma cell lines; test: Cell viability of mouse adenocarcinoma and squamous cell carcinoma cell lines; format: cell-based; conditions: 48 hr, low doses
From the text: as §1

A549 cells [9] = test: Mitochondrial membrane potential (ΔΨ) by TMRE flow cytometry, A549; format: cell-based, human; conditions: A549, short-term treatment 3 hr
Experimental: Experiments were conducted by analyzing TMRE fluorescence using flow cytometry. […] Cells were resuspended in 0.5 ml DMEM with 5% FBS containing different concentrations of phenformin or oligomycin or FCCP as indicated in figure legends. […] Cells were washed twice in phenol red free DMEM and cellular fluorescence was acquired with a BD LSRII analyzer at UCLA Flow Cytometry Core. Data was analyzed with Flowing Software.

Row | SMILES | Ki67 positive cells in TTF1+ ADCs (Kras/Lkb1 lung tumors [1]) | response of CK5+ SCCs (Ki67) (Kras/Lkb1 lung tumors [1]) | sensitivity (cell viability) of lung ADC line vs SCC line (A549 and RH2 cells) | tumor burden (percent of lung area occupied by tumor) (Kras/Lkb1 lung tumors [2]; 15 mg/kg/day oral gavage, 12 days, vs vehicle) | sensitivity of 18FBnTP POS tumors to complex I inhibition (Kras/Lkb1 lung tumors [2]; Kras/Lkb1 mice) | phenformin in lung tumor tissue by mass spectrometry [3] | cellular OXPHOS (OCR) by respirometry (A549 cells [4]) | 18FBnTP uptake (gamma counter) (A549 cells [5]) | cleaved caspase 3 and Ki67 staining (apoptosis, proliferation) (Kras/Lkb1 lung tumors [6]) | 18FBnTP uptake in lung tumors post-treatment (Kras/Lkb1 lung tumors [7]; 125 mg/kg/day oral gavage) | 18FBnTP uptake in lung tumors, three independent experiments (Kras/Lkb1 lung tumors [7]; 125 mg/kg/day) | change in 18FBnTP uptake post-treatment to pre-treatment (Kras/Lkb1 lung tumors [7]; 125 mg/kg/day) | cellular apoptosis after longer treatment (Kras/Lkb1 tumors; 4-8 weeks treatment, Ref. 9,19) | sensitivity of Kras/Lkb1 tumors (Kras/Lkb1 tumors; Ref. 9) | response of lung SCC tumors from Kras/Lkb1 mice (Kras/Lkb1 tumors; Ref. 19,33) | sensitivity (cell viability) of lung ADC line vs SCC line [8] | ΔΨ measured by TMRE staining (A549 cells [9])
1 | Cc1nc(-c2nc(-c3ccc(OC(F)(F)F)cc3)no2)nn1Cc1cccc(N2CCC(S(C)(=O)=O)CC2)c1 [IACS-010759] | significant reduction in Ki67 positive cells | refractory | more sensitive | significant reduction in tumor burden | sensitive |  |  |  |  |  |  |  |  |  |  |  | 
2 | [H]/N=C(/N)N/C(=N/[H])NCCc1ccccc1 [phenformin] |  |  | more sensitive |  |  | significant increase in phenformin in tumors | significant reduction of cellular OXPHOS | significantly reduced | no evidence of phenformin induced apoptosis or reduced cell viability; also recorded: does not induced changes in proliferation or apoptosis | significant reduction; also recorded: suppresses | significant reduction | significant drop in tracer uptake | resulted in cellular apoptosis | sensitive | refractory | more sensitive | significantly reduced ΔΨ in a dose dependent manner
